Test results from publication PMC12314576, “The Actin‐Binding Prolyl‐Isomerase Par17 Sustains Its Substrate Selectivity by Interdomain Allostery” (Proteins, 2025).
Starred links: 1 amine or outer side, 2 acyl side, 3 side chain; linkers in the order of their positions; H or OH if unused. Residues, ends and D or L forms follow the SMILES beside them. *: point of attachment. pNA = O=[N+]([O-])c1ccc(N*)cc1; Suc = O=C(CCC(=O)[*:2])[*:1]

Tests used:
[1] = target: T1, Par14 (Par17Δ1-25) (Homo sapiens, UniProt Q9Y237); assay: Protease-coupled isomerase assay (PPIase assay) with Par14; assay type: biochemical; conditions: PPIase 2 μM, PBS pH 6.8, 10°C; for k = kobserved - kthermic, Par14 (Par17Δ1-25): α-chymotrypsin 35 μM, substrate 75 μM, absorbance 390 nm, mean ± SD
T1 construct: Comparison of spectra of full‐length parvulin proteins and PPIase domain; GST-His6 (PreScission site) (N, cleaved yes); made in house; host or cells: E. coli BL21 (DE3) T1r
Procedure: (§1) To determine the catalytic efficiency and substrate specificity of Par14 and Par17, we performed a protease‐coupled assay. In this assay, the trans form of a para‐nitroaniline (pNA) tagged model substrate is cleaved by chymotrypsin, and the resulting change in absorption at 390 nm due to free pNA is measured. When the model substrate is added to the protease‐containing buffer, all trans‐Xaa‐Pro isomers are immediately cleaved by chymotrypsin. Therefore, the extent of the first signal burst observed in the absorption spectrum correlates with the amount of trans isomers of the model substrate formed during the experimental dead time. The remaining cis‐Xaa substrates now start to isomerize by thermal (in the absence of PPIase) or catalytic reaction (in the presence of PPIase). The newly formed trans‐Xaa substrates are immediately cleaved, and isomerization can thus be monitored over time (Figure 2). Eighteen different substrate peptides with varying amino acids at the Xaa position (Suc‐Ala‐Xaa‐Pro‐Phe‐pNa) were measured to determine the isomerase activity and substrate selectivity of Par14 (Par17Δ1–25), Par17, and the catalytic domain (Par17Δ1–60) (Table S1). The catalytic efficiency is obtained from the observed isomerization curves by calculating the difference between the rate constant in the presence of enzyme and the rate constant obtained from thermal isomerization.
(§2) We determined the isomerase activity using the PPIase assay described by. The lyophilized peptides were dissolved in an adequate volume of 0.5 mM‐LiCl/TFE buffer to obtain a 15 mM stock solution. To achieve a stable cis/trans ratio the mixture was incubated overnight at 4°C. The next day a stock solution of 350 μM α‐chymotrypsin in PBS was incubated on ice for at least 20 min. For measurements without PPIase PBS buffer (pH 6.8) was mixed with α‐chymotrypsin to a final concentration of 35 μM in 1 mL. A baseline was recorded for 5 min (Cary 100Bio UV/Vis spectrophotometer, Varian/Agilent, Santa Clara, US, λ: 390 nm, bandwidth: 1.0 nm, average time between measurements: 0.5 s, temperature: 10°C). After 5 min the substrate peptide was added to a final concentration of 75 μM in 1 mL [59]. The solution was mixed by inverting the cuvette three times and the reaction was recorded for 15 min. Measurements in the presence of PPIase were performed in the same way, except that before the baseline measurement, the appropriate isomerase was added in a final concentration of 2 μM in 1 mL in addition to PBS and α‐chymotrypsin.
(§3) For the data analysis, a mean value of the baseline was subtracted (average of the first 200 data points). The measured values were normalized according to the respective maximum of the measurement. To determine the rate constant, the program graph pad was used, and non‐linear curve fitting was applied for each measurement (exponential, one‐phase association). (1) Y=Y0+Plateau−Y0∙1−e^−K∙x
(§4) where x is the time (min), Y is the absorbance, Y 0 is the absorbance when x = 0, Plateau is the Y value at infinite times, K is the rate constant (min^−1).
(§5) The K cat/K M value was calculated according to Equation (2): (2) kcat/KM=kobs−ktherm/PPIase where k cat/K M is the catalytic efficiency (M^−1 s^−1), k obs, rate constant of the observed reaction (s^−1), k therm is the rate constant of the thermic reaction (s^−1), and [PPIase] is the concentration of PPIase used in the assay (M).
(§6) The obtained data are fitted to Equation (2) using a pseudo first‐order assumption. This is the case, if k obs values behave linearly with rising PPIase concentrations.

[2] = target: T2, PPIase domain (Par17Δ1-60) (Homo sapiens, UniProt Q9Y237); assay: Protease-coupled isomerase assay (PPIase assay) with the catalytic domain; assay type: biochemical; conditions: PPIase 2 μM, PBS pH 6.8, 10°C; for k = kobserved - kthermic, PPIase domain (Par17Δ1-60): α-chymotrypsin 35 μM, substrate 75 μM, absorbance 390 nm, mean ± SD
T2 construct: GST-His6 (PreScission site) (N, cleaved yes); made in house; host or cells: E. coli BL21 (DE3) T1r
Procedure: as §1, §2, §3, §4, §5, §6

[3] = target: T3, Par17 (Homo sapiens, UniProt Q9Y237); assay: Protease-coupled isomerase assay (PPIase assay) with Par17; assay type: biochemical; conditions: for k = kobserved - kthermic, Par17: α-chymotrypsin 35 μM, substrate 75 μM, absorbance 390 nm, mean ± SD; for k cat/K M of Par17, times higher than for Leu‐Pro, Gln‐Pro or His‐Pro peptides: ratio of k cat/K M values
T3 construct: full‐length Par17 and the N‐terminus of Par17; GST-His6 (PreScission site) (N, cleaved yes); Gly-Pro remnant of the PreScission site (Gly stands at position 1 in place of Met1); made in house; host or cells: E. coli BL21 (DE3) T1r
Procedure: as §1, §2, §3, §4, §5, §6

[4] = target: T3, Par17; assay: NMR titration of substrate peptides to 15N-labeled full-length Par17; assay type: binding; conditions: 300 μM Par17, KPi pH 6.7, 20°C
Procedure: The amide signals were assigned and combined chemical shift changes between the signals of free and substrate‐bound isomers were calculated.
For NMR measurements, purified and concentrated proteins in salt‐free buffers were mixed with 10% D2O and 1 μL DSS standard. Spectra were measured on an ultra shield 700‐NMR (Bruker, Billerica, US) with a triple resonance cryoprobe (700 MHz). For recording and processing of data, the software Topspin 3.5 was used. Analysis of spectra was carried out using Cara analysis software 2.3.1 (Rochus L.J. Keller) and/or CcpNmr Analysis 2.3.1 (Department of Molecular and Cell Biology, University of Leicester, UK).
Titration of substrate peptides to ^ 15 N‐labeled full‐length Par17 and the N‐terminus of Par17: The following substrate peptides were diluted in salt‐free 50 mM KPi buffer pH 6.7 to a concentration of 15 mM (Suc: Succinyl, pNA: para‐Nitroanilin):
They were added stepwise to 200 μL of the labeled parvulins (300 μM in 50 mM KPi buffer pH 6.7). Spectra were recorded with the pulse program Best‐TROSY at 20°C. Combined chemical shifts were calculated as described. Microscopic dissociation constant K D was fitted with the following equation (assuming a 1:1 binding model): (4) ∆δ=∆δmax·P+x+KD−P+x+KD^2−4·x·P/2·P
where ∆δmax is the amplitude, P is the protein concentration, X is the concentration of the peptide.
Differences in chemical shift changes could be measured up to 0.001 ppm (error in peak picking). Changes were interpreted as significant if Δ > 0.004 ppm and when appearing consecutively in a linear sequence element.
The microscopic K D describes the binding affinity of the ligand to a single side of an amino acid.

[5] = Table ST1, (kobs−ktherm)/[PPIase]

T2 sequence (Q9Y237 36-131, stated change not applied): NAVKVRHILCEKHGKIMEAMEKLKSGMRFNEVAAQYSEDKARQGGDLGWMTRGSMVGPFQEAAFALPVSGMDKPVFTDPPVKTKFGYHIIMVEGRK
T3 sequence (Q9Y237 1-156 isoform Q9Y237-2): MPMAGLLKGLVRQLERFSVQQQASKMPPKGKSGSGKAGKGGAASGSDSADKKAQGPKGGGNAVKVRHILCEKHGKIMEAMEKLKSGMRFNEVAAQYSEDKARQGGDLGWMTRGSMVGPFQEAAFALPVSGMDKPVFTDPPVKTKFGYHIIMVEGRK
T1 sequence (Q9Y237 whole entry, stated change not applied, the tested form may be a part): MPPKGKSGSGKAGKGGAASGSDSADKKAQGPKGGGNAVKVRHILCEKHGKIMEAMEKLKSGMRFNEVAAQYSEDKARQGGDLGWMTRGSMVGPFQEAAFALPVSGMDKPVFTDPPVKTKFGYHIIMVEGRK

Molecule	k = kobserved - kthermic, Par14 (Par17Δ1-25) [1]	k = kobserved - kthermic, PPIase domain (Par17Δ1-60) [2]	k = kobserved - kthermic, Par17 ([3]; PBS pH 6.8, 10°C, PPIase 2 μM)	Combined chemical shift perturbation of full length Par17, 115M ([4]; peptide 0,2 mM)	Combined chemical shift perturbation of full length Par17, 119F ([4]; peptide 0,2 mM)	Combined chemical shift perturbation of full length Par17, 115M ([4]; peptide 1 mM)	Combined chemical shift perturbation of full length Par17, 116V ([4]; peptide 1 mM)	Combined chemical shift perturbation of full length Par17, 119F ([4]; peptide 1 mM)	Combined chemical shift perturbation of full length Par17, 115M ([4]; peptide 2 mM)	Combined chemical shift perturbation of full length Par17, 116V ([4]; peptide 2 mM)	Combined chemical shift perturbation of full length Par17, 119F ([4]; peptide 2 mM)	Combined chemical shift perturbation of full length Par17, 115M ([4]; peptide 3 mM)	Combined chemical shift perturbation of full length Par17, 116V ([4]; peptide 3 mM)	Combined chemical shift perturbation of full length Par17, 119F ([4]; peptide 3 mM)	Combined chemical shift perturbation of full length Par17, 115M ([4]; peptide 4 mM)	Combined chemical shift perturbation of full length Par17, 119F ([4]; peptide 4 mM)	Combined chemical shift perturbation of full length Par17, 115M ([4]; peptide 5 mM)	Combined chemical shift perturbation of full length Par17, 119F ([4]; peptide 5 mM)	k cat/K M of Par17, times higher than for Leu‐Pro, Gln‐Pro or His‐Pro peptides [3]	Combined chemical shift perturbation of full length Par17, 116V ([4]; peptide 4 mM)	also measured
Suc-Ala-Ser-Pro-Phe-pNa [model substrate peptide, Xaa = Ser]	0.332 ± 0.054 min⁻¹	0.327 ± 0.273 min⁻¹	<0.01 ± 0.098 min⁻¹																		kcat/KM, Par14 (Par17Δ1-25) [1, 5]: 2.7 M^-1·s^-1 · 10^3; kcat/KM, PPIase domain (Par17Δ1-60) [2, 5]: 2.7 M^-1·s^-1 · 10^3; kcat/KM, Par17 ([3]; Table ST1, (kobs−ktherm)/[PPIase], PPIase 2 μM, PBS pH 6.8, 10°C): <0.1 M^-1·s^-1 · 10^3
C[C@H](NC(=O)CCC(=O)O)C(=O)N[C@@H](CCCNC(=N)N)C(=O)N1CCC[C@H]1C(=O)N[C@@H](Cc1ccccc1)C(=O)Nc1ccc([N+](=O)[O-])cc1 [Arg, Suc‐Ala‐Arg‐Pro‐Phe‐pNa] (Suc-ARPF-pNA)	0.582 ± 0.094 min⁻¹	0.683 ± 0.064 min⁻¹	0.470 ± 0.037 min⁻¹	0,0060079 ppm	0,00418543 ppm	0,0143348 ppm	0,13037308 ppm	0,01835824 ppm	0,02655282 ppm	0,18551846 ppm	0,03376697 ppm	0,03809928 ppm	0,23776807 ppm	0,04577626 ppm	0,0454705 ppm	0,05474353 ppm	0,0546769 ppm	0,06351885 ppm	approximately 10 times		Combined chemical shift perturbation of full length Par17, 115M ([4]; peptide 0,4 mM): 0,00801333 ppm; Combined chemical shift perturbation of full length Par17, 116V ([4]; peptide 0,4 mM): 0,06817833 ppm; Combined chemical shift perturbation of full length Par17, 119F ([4]; peptide 0,4 mM): 0,00841748 ppm
C[C@H](NC(=O)CCC(=O)O)C(=O)N[C@@H](CCC(=O)O)C(=O)N1CCC[C@H]1C(=O)N[C@@H](Cc1ccccc1)C(=O)Nc1ccc([N+](=O)[O-])cc1 [Glu, Suc–Ala–Glu–Pro–Phe–pNa] (Suc-AEPF-pNA)	0.267 ± 0.011 min⁻¹	0.114 ± 0.074 min⁻¹	<0.01 ± 0.029 min⁻¹	0,01409 ppm	0,02147 ppm	0,06465 ppm	0,12599 ppm	0,0896 ppm	0,10754 ppm	0,21191 ppm	0,14351 ppm	0,13595 ppm	0,27245 ppm	0,18213 ppm	0,16135 ppm	0,22445 ppm				0,32999 ppm	Combined chemical shift perturbation of full length Par17, 113G ([4]; peptide 0,2 mM): 0,02117 ppm; Combined chemical shift perturbation of full length Par17, 116V ([4]; peptide 0,2 mM): 0,03056 ppm; Combined chemical shift perturbation of full length Par17, 113G ([4]; peptide 1 mM): 0,08535 ppm; Combined chemical shift perturbation of full length Par17, 113G ([4]; peptide 2 mM): 0,14414 ppm; Combined chemical shift perturbation of full length Par17, 113G ([4]; peptide 3 mM): 0,17998 ppm; Combined chemical shift perturbation of full length Par17, 113G ([4]; peptide 4 mM): 0,21636 ppm
C[C@H](NC(=O)CCC(=O)O)C(=O)N[C@@H](CCCCN)C(=O)N1CCC[C@H]1C(=O)N[C@@H](Cc1ccccc1)C(=O)Nc1ccc([N+](=O)[O-])cc1 [Lys, Suc‐Ala‐Lys‐Pro‐Phe‐pNa]	0.412 ± 0.014 min⁻¹	0.442 ± 0.006 min⁻¹	0.33 ± 0.012 min⁻¹	0,00414271 ppm	0,00604921 ppm	0,01818939 ppm	0,06817833 ppm	0,02459781 ppm	0,03362789 ppm	0,13037308 ppm	0,04192915 ppm	0,04495973 ppm	0,18551846 ppm	0,05880948 ppm	0,05828389 ppm	0,07526515 ppm	0,06478417 ppm	0,08126177 ppm	approximately 10 times	0,23776807 ppm	
